Measurements: US20090118471A1, “NOVEL COUMARIN DERIVATIVES” (The University of Tokyo, priority 2006, published 2009)
Counter-ions that a name gives are not always drawn.

Experiments:
[1] = in 0.1 mol/L sulfuric acid solution; value taken as standard; cited from earlier work
[2] = Fluorescence intensity after reaction with N-acetylcysteine; format: physicochemical; conditions: 5 μmol/L; after reaction with one molecule of cysteine (NAC); sodium phosphate buffer pH 7.4, 0.5% DMSO
Experimental: (§1) Compound 8 at a concentration of 5 μmol/L was added with N-acetylcysteine (NAC), Ac-AECACRA-OH peptide, or Ac-AECAACRA-OH peptide (C-terminus is carboxyl group, N-terminus is acetyl group (Ac), and amino acids are represented by the single letter codes), and fluorescence intensity was measured. For the reaction mixture, a 100 mmol/L sodium phosphate buffer (pH=7.4, containing 0.5% dimethyl sulfoxide as a cosolvent) was used.

[3] = Fluorescence intensity after reaction with peptides containing two neighboring cysteine residues; format: physicochemical; conditions: 5 μmol/L; after reaction with peptides containing two neighboring cysteine residues in the same molecule; sodium phosphate buffer pH 7.4, 0.5% DMSO
Experimental: as §1

Compound	Fluorescence quantum yield (reference standard) [1]	Fluorescence [2]	Fluorescence [3]
C=C[C@H]1C[N@@]2CC[C@H]1C[C@H]2[C@H](O)c1ccnc2ccc(OC)cc12 [quinine sulfate]	0.577	–	–
O=C(Cc1cc(=O)oc2cc(O)ccc12)NC1CC(N2C(=O)C=CC2=O)CC(N2C(=O)C=CC2=O)C1 (stereo not drawn) [Compound 8]	–	substantially non-fluorescent	intensely fluorescent adducts
